Laboratory results published in EPA's ToxRefDB 2.

What was measured:
[1] = system: rat; details: Prenatal developmental toxicity study, sprague dawley, Oral, Feed, dose end: 20 GD
[2] = system: dog; details: Chronic toxicity, beagle, Oral, Capsule, dose end: 52 week, group: systemic
[3] = system: rat; details: Combined chronic toxicity/carcinogenicity, sprague dawley, Oral, Feed, dose end: 734 day, group: systemic
[4] = system: rat; details: Subchronic oral toxicity in rodents, sprague dawley, Feed, dose end: 90 day, group: systemic
[5] = system: rat; details: Developmental neurotoxicity range-finding study; sprague dawley; Oral; Feed; dose end: 22 PND; group: cannot be grouped; systemic / in life observation / clinical signs / tremors
[6] = system: mouse; details: Carcinogenicity, cd1, Oral, Feed, dose end: 87 week, group: systemic
[7] = system: rat; details: Prenatal developmental toxicity study, sprague dawley, Oral, Gavage/Intubation, dose end: 15 GD
[8] = system: dog; details: Subchronic oral toxicity in nonrodent, beagle, Capsule, dose end: 13 week
[9] = system: rabbit; details: Prenatal developmental toxicity study; new zealand white; Oral; Feed; dose end: 29 GD; group: developmental; developmental / developmental malformation / bone / absent + developmental / developmental malformation / bone / incomplete ossification + …
[10] = system: dog; details: Chronic toxicity, beagle, Oral, Capsule, dose end: 1 year, group: systemic
[11] = system: dog; details: Sub-acute repeat dose toxicity; beagle; Oral; Capsule; dose end: 28 day; group: systemic; systemic / pathology microscopic / heart / lesion(s) (nos)
[12] = system: rat; details: Sub-acute repeat dose toxicity, sprague dawley, Oral, Feed, dose end: 28 day, group: systemic
[13] = system: rabbit; details: Prenatal developmental toxicity study, new zealand white, Oral, Gavage/Intubation, dose end: 29 GD
[14] = system: rat; details: Sub-acute repeat dose toxicity, sprague dawley, Oral, Feed, dose end: 28 day, group: systemic; remark: listed apart in the source
[15] = group: developmental, developmental / developmental malformation / bone / unossified
[16] = group: maternal, systemic / in life observation / body weight / body weight gain + systemic / in life observation / clinical signs / hypersensitivity + …
[17] = systemic / in life observation / clinical signs / tremors
[18] = systemic / in life observation / clinical signs / tremors + systemic / hematology / erythrocyte (rbc) count differential / erythrocyte (rbc…
[19] = systemic / pathology microscopic / testes / degeneration
[20] = group: developmental, developmental / developmental malformation / ureter / hydroureter
[21] = group: maternal, systemic / in life observation / clinical signs / tremors
[22] = group: maternal, reproductive / reproductive performance / estrous cycle / abnormal
[23] = group: systemic, systemic / in life observation / clinical signs / tremors + systemic / in life observation / body weight / body weight gain + systemic / in …
[24] = systemic / pathology microscopic / heart / lesion(s) (nos) + systemic / pathology microscopic / heart / fibrosis
[25] = systemic / in life observation / body weight / body weight + systemic / in life observation / body weight / body weight gain + systemic / in…
[26] = systemic / in life observation / body weight / body weight gain
[27] = group: developmental, developmental / developmental malformation / bone / absent + developmental / developmental malformation / bone / incomplete ossification + …
[28] = group: maternal, reproductive / reproductive performance / aborted / aborted + reproductive / reproductive performance / resorptions / resorptions + systemic…

## Cc1c(COC(=O)[C@@H]2[C@H](/C=C(\Cl)C(F)(F)F)C2(C)C)cccc1-c1ccccc1 [Bifenthrin]
[1]; [15]
  LEL: 16.3 mg/kg/day
  LOAEL: > 16.3 mg/kg/day
  NEL: 7.4 mg/kg/day
  NOAEL: ≥ 16.3 mg/kg/day
[1]; [16]
  LEL: 16.3 mg/kg/day
  LOAEL: 16.3 mg/kg/day
  NEL: 7.4 mg/kg/day
  NOAEL: 7.4 mg/kg/day
[2]; [17]
  LOAEL: 3 mg/kg/day
[2]; systemic / in life observation / clinical signs / tremors + systemic / clinical chemistry / sodium / sodium
  LEL: 3 mg/kg/day
[2]; [18]
  NEL: 1.5 mg/kg/day
  NOAEL: 1.5 mg/kg/day
[3]; [17]
  LOAEL: 6.1 mg/kg/day
[3]; systemic / in life observation / clinical signs / tremors + systemic / in life observation / body weight / body weight + systemic / in life …
  NOAEL: 3 mg/kg/day
[3]; systemic / organ weight / kidney / relative to body weight + systemic / organ weight / liver / relative to body weight
  LEL: 4.7 mg/kg/day
[3]; systemic / organ weight / kidney / relative to body weight + systemic / organ weight / liver / relative to body weight + systemic / in life …
  NEL: 2.3 mg/kg/day
[4]; systemic / in life observation / body weight / body weight + systemic / in life observation / body weight / body weight gain
  NEL: 17.2 mg/kg/day
[4]; [17]
  LOAEL: 7.5 mg/kg/day
[4]; systemic / in life observation / clinical signs / tremors + systemic / clinical chemistry / potassium / potassium + systemic / clinical …
  NOAEL: 3.8 mg/kg/day
[5]
  LEL: 9.3 mg/kg/day
  LOAEL: > 9.3 mg/kg/day
  NEL: 7.4 mg/kg/day
  NOAEL: ≥ 9.3 mg/kg/day
[6]; [17]
  LOAEL: 25.6 mg/kg/day
[6]; systemic / in life observation / clinical signs / tremors + systemic / pathology microscopic / liver / adenoma/carcinoma combined + systemic…
  NOAEL: 6.7 mg/kg/day
[6]; [19]
  LEL: 6.7 mg/kg/day
  NEL: < 6.7 mg/kg/day
[7]; [20]
  LEL: 2 mg/kg/day
  LOAEL: 2 mg/kg/day
  NEL: 1 mg/kg/day
  NOAEL: 1 mg/kg/day
[7]; [21]
  LEL: 2 mg/kg/day
  LOAEL: 2 mg/kg/day
  NEL: 1 mg/kg/day
  NOAEL: 1 mg/kg/day
[8]; [22]
  LEL: 10 mg/kg/day
  LOAEL: > 20 mg/kg/day
  NEL: 5 mg/kg/day
  NOAEL: ≥ 20 mg/kg/day
[8]; group: systemic, systemic / in life observation / clinical signs / tremors
  LOAEL: 5 mg/kg/day
[8]; [23]
  NEL: 2.5 mg/kg/day
  NOAEL: 2.5 mg/kg/day
[8]; group: systemic, systemic / in life observation / clinical signs / tremors + systemic / in life observation / clinical signs / ataxia
  LEL: 5 mg/kg/day

## Cn1cnc2c1c(=O)[nH]c(=O)n2C [Theobromine]
[9]
  LEL: 41 mg/kg/day
  LOAEL: > 63 mg/kg/day
  NEL: 21 mg/kg/day
  NOAEL: ≥ 63 mg/kg/day
[10]; systemic / pathology microscopic / heart / lesion(s) (nos)
  LEL: 100 mg/kg/day
[10]; [24]
  LOAEL: > 150 mg/kg/day
  NOAEL: ≥ 150 mg/kg/day
[11]
  LEL: 100 mg/kg/day
  LOAEL: > 150 mg/kg/day
  NEL: 75 mg/kg/day
  NOAEL: ≥ 150 mg/kg/day
[12]; [25]
  LOAEL: > 492 mg/kg/day
  NOAEL: ≥ 492 mg/kg/day
[12]; [26]
  LEL: 94 mg/kg/day
  NEL: < 94 mg/kg/day
[13]; group: developmental, developmental / developmental malformation / bone / absent + developmental / developmental malformation / bone / incomplete ossification
  LEL: 75 mg/kg/day
[13]; [27]
  LOAEL: > 200 mg/kg/day
  NEL: 25 mg/kg/day
  NOAEL: ≥ 200 mg/kg/day
[13]; [28]
  LOAEL: > 200 mg/kg/day
  NEL: 25 mg/kg/day
  NOAEL: ≥ 200 mg/kg/day
[13]; group: maternal, reproductive / reproductive performance / resorptions / resorptions + reproductive / offspring survival early / dead fetuses / dead fetuses
  LEL: 75 mg/kg/day
[14]; [25]
  LOAEL: > 912 mg/kg/day
  NOAEL: ≥ 912 mg/kg/day
[14]; systemic / in life observation / body weight / body weight + systemic / in life observation / food consumption / food consumption
  LEL: 389 mg/kg/day
[14]; systemic / in life observation / body weight / body weight + systemic / in life observation / food consumption / food consumption + systemic…
  NEL: 200 mg/kg/day
